US20200087314A1, “HISTONE DEACETYLASE INHIBITORS” (BIOMARIN PHARMACEUTICAL INC., priority 2016, published 2020)
Structures can show the parent of a compound that is named as a salt.

system: Frataxin (FXN) mRNA expression; assay: Effect of HDAC inhibitors on frataxin (FXN) mRNA expression in iPSC derived neuronal cells (qRT-PCR); assay type: cell-based; details: iPSC derived neuronal cells differentiated 16 days, compound incubated 24 h
Experimental: Effect of HDAC Inhibitors on Frataxin (FXN) mRNA Expression
Method: mRNA quantification of compound-treated iPSC derived neuronal cells Neuronal stem cells were cultured in Neurobasal A medium (Life technologies #10888022) supplemented with N2, B27 (Life technologies #17502-048 and #17504-044), L-glutamine (Life technologies #25030081), supplemented with 20 ng/ml EGF (R&D Systems #236-EG) and 20 ng/ml bFGF (BioPioneer # HRP-0011). Neuronal differentiation was initiated by removing growth factors and culturing cells in Neurobasal A with N2 and B27. Cells were allowed to differentiate for 16 days. HDAC inhibitory compound was then added and incubate for 24 h. RNA isolation was performed using the RNeasy Plus mini kit (QIAgen #74134) using a QIAcube instrument per manufacturer's instructions. qRT-PCR was performed using qScript One-Step SYBR Green qRT-PCR Kit (Quanta Biosciences 170-8893BR) with the following conditions: 20 minutes at 50° C., 5 minutes at 95° C., and then 40 cycles of 20 seconds at 95° C., 20 seconds at 55° C., 30 seconds at 72° C. The primer sequences to detect expression of FXN were: 5′-[…]-3′ and 5′-[…]-3′.
Data for additional compounds for iPSC fold inductions and cLogP are shown in Table 4 The ranges reported for cLogP refer to the following. A<1, 1<B<2, 2<C<3, 3<D<5, E>5. NA refers to “not available.”

SMILES	Fold Induction
C[C@@H]1CN(Cc2ccc(C(=O)Nc3ccccc3N)cc2)[C@@H](C)CN1CC1CC1 (racemic) [Compound 477, N-(2-aminophenyl)-4-(((2S,5R)-4-(cyclopropylmethyl)-2,5-dimethylpiperazin-1-yl)methyl)benzamide]	1.8
C[C@@H]1CN(Cc2ccc(C(=O)Nc3ccccc3N)cc2)[C@@H](C)CN1CC(C)(C)O (racemic) [Compound 478, N-(2-aminophenyl)-4-(((2S,5R)-4-(2-hydroxy-2-methylpropyl)-2,5-dimethylpiperazin-1-yl)methyl)benzamide]	2.1
CC(C)(O)CN1CCN(Cc2ccc(C(=O)Nc3ccccc3N)cc2)CC1.Cl.Cl.Cl [Compound 146, N-(2-aminophenyl)-4-((4-(2-hydroxy-2-methylpropyl)piperazin-1-yl)methyl)benzamide]	1.8
Cl.Cl.Cl.Nc1ccccc1NC(=O)c1ccc(CN2CCN(CC3CC3)CC2)cc1 [Compound 147, N-(2-aminophenyl)-4-((4-(cyclopropylmethyl)piperazin-1-yl)methyl)benzamide]	1.8
CC(C)(O)CN1CCC(Cc2ccc(C(=O)Nc3ccc(F)cc3N)cc2)CC1 [Compound 161, N-(2-amino-4-fluorophenyl)-4-((1-(2-hydroxy-2-methylpropyl)piperidin-4-yl)methyl)benzamide]	1.2
CC(C)(C)CN1CCC(Cc2ccc(C(=O)Nc3ccc(F)cc3N)cc2)CC1 [Compound 162, N-(2-amino-4-fluorophenyl)-4-((1-neopentylpiperidin-4-yl)methyl)benzamide]	1.3
Nc1cc(F)ccc1NC(=O)c1ccc(CC2CCN(CC3CC3)CC2)cc1 [Compound 163, N-(2-amino-4-fluorophenyl)-4-((1-(cyclopropylmethyl)piperidin-4-yl)methyl)benzamide]	1.2
Nc1cc(F)ccc1NC(=O)c1ccc(CC2CN(CC3CC3)C2)cc1 [Compound 169, N-(2-amino-4-fluorophenyl)-4-((1-(cyclopropylmethyl)azetidin-3-yl)methyl)benzamide]	1.3
Cl.Cl.Nc1ccccc1NC(=O)c1ccc(CN2CCCCC2)cc1 [Compound 171, N-(2-aminophenyl)-4-(piperidin-1-ylmethyl)benzamide]	0.9
CC1(C)CCN(Cc2ccc(C(=O)Nc3ccccc3N)cc2)CC1.Cl.Cl [Compound 172, N-(2-aminophenyl)-4-((4,4-dimethylpiperidin-1-yl)methyl)benzamide]	1.4
Cl.Cl.Nc1ccccc1NC(=O)c1ccc(CN2CCC3(CCCCC3)CC2)cc1 [Compound 174, 4-((3-azaspiro[5.5]undecan-3-yl)methyl)-N-(2-aminophenyl)benzamide]	1.1
Nc1ccccc1NC(=O)c1ccc(CN2CCC3(CC2)COC3)cc1 [Compound 175, 4-((2-oxa-7-azaspiro[3.5]nonan-7-yl)methyl)-N-(2-aminophenyl)benzamide]	1.5
Nc1ccccc1NC(=O)c1ccc(CN2CCC2)cc1 [Compound 176, N-(2-aminophenyl)-4-(azetidin-1-ylmethyl)benzamide]	1.5
CC(C)(O)CC1CCN(Cc2ccc(C(=O)Nc3ccccc3N)cc2)CC1 [Compound 181, N-(2-aminophenyl)-4-((4-(2-hydroxy-2-methylpropyl)piperidin-1-yl)methyl)benzamide]	1.5
Nc1ccccc1NC(=O)c1ccc(CN2CC3(C2)CN(CC2CC2)C3)cc1 [Compound 238, N-(2-aminophenyl)-4-((6-(cyclopropylmethyl)-2,6-diazaspiro[3.3]heptan-2-yl)methyl)benzamide]	1.5
Nc1ccccc1NC(=O)c1ccc(CN2CC3(CNC3)C2)cc1 [Compound 241, 4-((2,6-diazaspiro[3.3]heptan-2-yl)methyl)-N-(2-aminophenyl)benzamide]	1.9
Nc1ccccc1NC(=O)c1ccc(CC2CCN(CC34CC5CC(CC(C5)C3)C4)CC2)cc1 [Compound 354, 4-((1-(((3r,5r,7r)-adamantan-1-yl)methyl)piperidin-4-yl)methyl)-N-(2-aminophenyl)benzamide]	1.9
CC1(C)CC(Cc2ccc(C(=O)Nc3ccccc3N)cc2)CCN1CC1CC1 (stereo not drawn) [Compound 356, N-(2-aminophenyl)-4-((1-(cyclopropylmethyl)-2,2-dimethylpiperidin-4-yl)methyl)benzamide]	2.0

SMILES	Fold Induction
CC(C)(O)CN1CCC(Cc2ccc(C(=O)Nc3ccccc3N)cc2)CC1(C)C (stereo not drawn) [Compound 357, N-(2-aminophenyl)-4-((1-(2-hydroxy-2-methylpropyl)-2,2-dimethylpiperidin-4-yl)methyl)benzamide]	1.7
CC1(C)CC(Cc2ccc(C(=O)Nc3ccccc3N)cc2)CCN1 (stereo not drawn) [Compound 359, N-(2-aminophenyl)-4-((2,2-dimethylpiperidin-4-yl)methyl)benzamide]	1.9
CC(C)(O)CN1CCCC(Cc2ccc(C(=O)Nc3ccccc3N)cc2)CC1.Cl.Cl (stereo not drawn) [Compound 379, N-(2-aminophenyl)-4-((1-(2-hydroxy-2-methylpropyl)azepan-4-yl)methyl)benzamide dihydrochloride]	2.1
CC(C)=CC1CCN(Cc2ccc(C(=O)Nc3ccccc3N)cc2)CC1 [Compound 472, N-(2-aminophenyl)-4-((4-(2-methylprop-1-en-1-yl)piperidin-1-yl)methyl)benzamide]	1.5
C[C@@H]1CN(Cc2ccc(C(=O)Nc3ccccc3N)cc2)CCN1CC1CC1 [Compound 479, (R)-N-(2-aminophenyl)-4-((4-(cyclopropylmethyl)-3-methylpiperazin-1-yl)methyl)benzamide]	2.2
C[C@@H]1CN(Cc2ccc(C(=O)Nc3ccccc3N)cc2)CCN1CC(C)(C)O [Compound 480, (R)-N-(2-aminophenyl)-4-((4-(2-hydroxy-2-methylpropyl)-3-methylpiperazin-1-yl)methyl)benzamide]	2.0
C[C@H]1CN(CC2CC2)CCN1Cc1ccc(C(=O)Nc2ccccc2N)cc1 [Compound 481, (S)-N-(2-aminophenyl)-4-((4-(cyclopropylmethyl)-2-methylpiperazin-1-yl)methyl)benzamide]	1.6
C[C@H]1CN(CC(C)(C)O)CCN1Cc1ccc(C(=O)Nc2ccccc2N)cc1 [Compound 482, (S)-N-(2-aminophenyl)-4-((4-(2-hydroxy-2-methylpropyl)-2-methylpiperazin-1-yl)methyl)benzamide]	1.7
CC1(C)CN(Cc2ccc(C(=O)Nc3ccccc3N)cc2)CCN1CC1CC1 [Compound 483, N-(2-aminophenyl)-4-((4-(cyclopropylmethyl)-3,3-dimethylpiperazin-1-yl)methyl)benzamide]	1.7
CC(C)(O)CN1CCN(Cc2ccc(C(=O)Nc3ccccc3N)cc2)CC1(C)C [Compound 484, N-(2-aminophenyl)-4-((4-(2-hydroxy-2-methylpropyl)-3,3-dimethylpiperazin-1-yl)methyl)benzamide]	1.6
Nc1ccccc1NC(=O)c1ccc(CN2CCCN(CC3CC3)CC2)cc1 [Compound 485, N-(2-aminophenyl)-4-((4-(cyclopropylmethyl)-1,4-diazepan-1-yl)methyl) benzamide trihydrochloride]	2.2
CC(C)(O)CN1CCCN(Cc2ccc(C(=O)Nc3ccccc3N)cc2)CC1 [Compound 486, N-(2-aminophenyl)-4-((4-(2-hydroxy-2-methylpropyl)-1,4-diazepan-1-yl)methyl) benzamide]	1.9
C[C@@H]1CN(Cc2ccc(C(=O)Nc3ccccc3N)cc2)C[C@H](C)N1CC1CC1 [Compound 487, N-(2-aminophenyl)-4-(((3R,5S)-4-(cyclopropylmethyl)-3,5-dimethylpiperazin-1-yl)methyl)benzamide]	1.3
C[C@@H]1CN(Cc2ccc(C(=O)Nc3ccccc3N)cc2)C[C@H](C)N1CC(C)(C)O [Compound 488, N-(2-aminophenyl)-4-(((3R,5S)-4-(2-hydroxy-2-methylpropyl)-3,5-dimethylpiperazin-1-yl)methyl)benzamide]	1.5
C[C@@H]1CN(CC2CC2)C[C@H](C)N1Cc1ccc(C(=O)Nc2ccccc2N)cc1 [Compound 489, N-(2-aminophenyl)-4-(((2R,6S)-4-(cyclopropylmethyl)-2,6-dimethylpiperazin-1-yl)methyl)benzamide]	1.5
C[C@@H]1CN(CC(C)(C)O)C[C@H](C)N1Cc1ccc(C(=O)Nc2ccccc2N)cc1 [Compound 490, N-(2-aminophenyl)-4-(((2R,6S)-4-(2-hydroxy-2-methylpropyl)-2,6-dimethylpiperazin-1-yl)methyl)benzamide]	1.4
CC1(C)CN(CC2CC2)CCN1Cc1ccc(C(=O)Nc2ccccc2N)cc1 [Compound 491, N-(2-aminophenyl)-4-((4-(cyclopropylmethyl)-2,2-dimethylpiperazin-1-yl)methyl)benzamide]	1.7
CC(C)(O)CN1CCN(Cc2ccc(C(=O)Nc3ccccc3N)cc2)C(C)(C)C1 [Compound 492, N-(2-aminophenyl)-4-((4-(2-hydroxy-2-methylpropyl)-2,2-dimethylpiperazin-1-yl)methyl)benzamide]	1.2
